The experiment deals with T1, chimeric human H3 receptor (Homo sapiens, UniProt Q9Y5N1, E19D).
T1 construct: made in house; host or cells: Sf9 insect cells (baculovirus infection); P2 membrane preparation
In words: Chimeric human H3 receptor screening GTP binding assay (inhibition of histamine-stimulated GTP-gamma35S binding, Example 8). Format: biochemical. The settings on record: 1 h, read-out: percent inhibition of agonist-induced GTP-gammaS binding to H3. The gist of the method:
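Sf9 membranes co-expressing the chimeric receptor and a heterotrimeric G-protein (35 μg protein) in Tris pH 7.4 buffer with 10 μM GDP; compound at 4 μM plus 1 μM histamine, 125 pM GTP-gamma35S, 60 min at room temperature. Filter-bound radioactivity read; non-specific binding defined with 10 uM GTP-gammaS; percent inhibition of histamine signal.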

The mark [1] stands for this setting: Table II, "+" in the column headed Ki, assay of Example 8.
[2] abbreviates: "+" in Ki of Table II, assay of Example 8.
Setting [3] is: assay described in Example 8, symbol + in column headed Ki of Table II.
Where [4] appears, read: Table II "Ki", symbol "+": assay described in Example 8.

Where two headings read alike, the source gives them in different places.

T1 sequence (Q9Y5N1 with tags, fused parts or gaps E19D): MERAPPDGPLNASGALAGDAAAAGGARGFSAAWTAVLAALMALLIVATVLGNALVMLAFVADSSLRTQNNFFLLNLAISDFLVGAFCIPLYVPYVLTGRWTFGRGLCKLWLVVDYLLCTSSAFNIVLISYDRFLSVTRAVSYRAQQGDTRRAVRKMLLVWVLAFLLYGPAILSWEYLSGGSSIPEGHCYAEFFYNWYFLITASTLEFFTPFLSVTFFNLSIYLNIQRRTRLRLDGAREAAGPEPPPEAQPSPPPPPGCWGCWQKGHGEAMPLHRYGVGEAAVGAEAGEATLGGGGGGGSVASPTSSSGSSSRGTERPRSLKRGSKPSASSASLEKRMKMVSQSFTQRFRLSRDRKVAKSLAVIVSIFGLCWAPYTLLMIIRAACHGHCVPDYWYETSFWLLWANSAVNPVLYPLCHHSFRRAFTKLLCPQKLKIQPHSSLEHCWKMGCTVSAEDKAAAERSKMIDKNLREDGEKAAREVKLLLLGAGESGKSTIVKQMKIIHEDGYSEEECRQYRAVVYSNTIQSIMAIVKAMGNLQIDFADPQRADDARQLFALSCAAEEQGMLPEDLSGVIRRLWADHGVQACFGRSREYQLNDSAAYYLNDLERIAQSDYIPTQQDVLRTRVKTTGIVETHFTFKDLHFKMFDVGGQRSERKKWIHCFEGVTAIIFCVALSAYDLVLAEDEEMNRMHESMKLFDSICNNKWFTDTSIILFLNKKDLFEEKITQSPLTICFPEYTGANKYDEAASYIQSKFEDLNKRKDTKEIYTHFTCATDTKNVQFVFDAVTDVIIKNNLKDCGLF

In the case of `CC(C)C(C(=O)N1CCN(CC(=O)N2CCN(C3CCC3)CC2)CC1)c1ccccc1` (centres unmarked) [Compound 760, 1-cyclobutyl-4-{[4-(3-methyl-2-phenylbutanoyl)piperazin-1-yl]acetyl}piperazine], the inhibition at 4 µM under setting [1] is greater than 90%.
The same measure, in the same setting: as for `O=C(CN1CCN(C(=O)c2ccc(C(F)(F)F)cc2)CC1)N1CCN(C2CCC2)CC1` [Compound 605, 1-cyclobutyl-4-({4-[4-(trifluoromethyl)benzoyl]piperazin-1-yl}acetyl)piperazine], the figure is greater than 90%.
Regarding `C=CCSc1ncccc1C(=O)N1CCN(CC(=O)N2CCN(C3CCC3)CC2)CC1` [Compound 475, 1-{[2-(allythio)pyridin-3-yl]carbonyl}-4-[2-(4-cyclobutylpiperazin-1-yl)-2-oxoethyl]piperazine], the inhibition at 4 µM under setting [2] is greater than 90%.
For the molecule `CSc1ccc(CC(=O)N2CCN(CC(=O)N3CCN(C4CCC4)CC3)CC2)cc1` [Compound 628, 1-cyclobutyl-4-[(4-{[4-(methylthio)phenyl]acetyl}piperazin-1-yl)acetyl]piperazine], the inhibition at 4 µM under setting [1] is greater than 90%.
As to `O=C(CN1CCN(C(=O)c2ccc(OC(F)F)cc2)CC1)N1CCN(C2CCC2)CC1` [Compound 596, 1-cyclobutyl-4-({4-[4-(difluoromethoxy)benzoyl]piperazin-1-yl}acetyl)piperazine], under setting [1], the inhibition at 4 µM was greater than 90%.
The same measure, in the same setting: to `CCOc1ccccc1C(=O)N1CCN(CC(=O)N2CCN(C3CCC3)CC2)CC1` [Compound 699, 1-cyclobutyl-4-{[4-(2-ethoxybenzoyl)piperazin-1-yl]acetyl}piperazine] belongs greater than 90%.
For the molecule `O=C(CN1CCN(C(=O)c2sccc2Br)CC1)N1CCN(C2CCC2)CC1` [Compound 395, 1-[(3-bromo-2-thienyl)carbonyl]-4-[2-(4-cyclobutylpiperazin-1-yl)-2-oxoethyl]piperazine], the inhibition at 4 µM under setting [3] is greater than 90%.
On to `O=C(CN1CCN(C(=O)c2ccsc2)CC1)N1CCN(C2CCC2)CC1` [Compound 765, 1-cyclobutyl-4-{[4-(3-thienylcarbonyl)piperazin-1-yl]acetyl}piperazine], for which the inhibition at 4 µM under setting [1] is greater than 90%.
Consider `O=C(CN1CCN(C(=O)c2ccccc2C(F)(F)F)CC1)N1CCN(C2CCC2)CC1` [Compound 579, 1-cyclobutyl-4-({4-[2-(trifluoromethyl)benzoyl]piperazin-1-yl}acetyl)piperazine], for which the inhibition at 4 µM under setting [1] is greater than 90%.
With `O=C(CN1CCN(C(=O)c2cc(C(F)(F)F)cc(C(F)(F)F)c2)CC1)N1CCN(C2CCC2)CC1` [Compound 456, 1-[3,5-bis(trifluoromethyl)benzoyl]-4-[2-(4-cyclobutylpiperazin-1-yl)-2-oxoethyl]piperazine], the inhibition at 4 µM under setting [2] is greater than 90%.
On to `CSc1sc(C(=O)N2CCN(CC(=O)N3CCN(C4CCC4)CC3)CC2)c2c1C=CCC2` [Compound 625, 1-cyclobutyl-4-[(4-{[3-(methylthio)-6,7-dihydro-2-benzothien-1-yl]carbonyl}piperazin-1-yl)acetyl]piperazine], for which, under setting [1], the inhibition at 4 µM is greater than 90%.
Take `Cc1cccc(OCC(=O)N2CCN(CC(=O)N3CCN(C4CCC4)CC3)CC2)c1C` [Compound 503, 1-cyclobutyl-4-({4-[(2,3-dimethylphenoxy)acetyl]piperazin-1-yl}acetyl)piperazine]: under setting [2], the inhibition at 4 µM is greater than 90%.
As for `COc1ccc(OC)c(C(=O)N2CCN(CC(=O)N3CCN(C4CCC4)CC3)CC2)c1` [Compound 686, 1-cyclobutyl-4-{[4-(2,5-dimethoxybenzoyl)piperazin-1-yl]acetyl}piperazine], the inhibition at 4 µM under setting [1] is greater than 90%.
As for `O=C(Cc1ccc(Cl)cc1)N1CCN(CC(=O)N2CCN(C3CCC3)CC2)CC1` [Compound 407, 1-[(4-chlorophenyl)acetyl]-4-[2-(4-cyclobutylpiperazin-1-yl)-2-oxoethyl]piperazine], the inhibition at 4 µM under setting [3] is greater than 90%.
With `COc1cc(CC(=O)N2CCN(CC(=O)N3CCN(C4CCC4)CC3)CC2)cc(OC)c1` [Compound 548, 1-cyclobutyl-4-({4-[(3,5-dimethoxyphenyl)acetyl]piperazin-1-yl}acetyl)piperazine], the inhibition at 4 µM under setting [2] is greater than 90%.
`COc1cc(Cl)ccc1OCC(=O)N1CCN(CC(=O)N2CCN(C3CCC3)CC2)CC1` [Compound 404, 1-[(4-chloro-2-methoxyphenoxy)acetyl]-4-[2-(4-cyclobutylpiperazin-1-yl)-2-oxoethyl]piperazine]: the inhibition at 4 µM under setting [3] is greater than 90%.
Consider `O=C(Cc1ccccc1F)N1CCN(CC(=O)N2CCN(C3CCC3)CC2)CC1` [Compound 534, 1-cyclobutyl-4-({4-[(2-fluorophenyl)acetyl]piperazin-1-yl}acetyl)piperazine], for which the inhibition at 4 µM under setting [2] was greater than 90%.
For `O=C(CN1CCN(C(=O)c2ccc(Cl)cc2)CC1)N1CCN(C2CCC2)CC1` [Compound 354, 1-(4-chlorobenzoyl)-4-[2-(4-cyclobutylpiperazin-1-yl)-2-oxoethyl]piperazine], under setting [3], the inhibition at 4 µM was greater than 90%.
`O=C(Cc1ccc2ccccc2c1)N1CCN(CC(=O)N2CCN(C3CCC3)CC2)CC1` [Compound 717, 1-cyclobutyl-4-{[4-(2-naphthylacetyl)piperazin-1-yl]acetyl}piperazine]: the inhibition at 4 µM under setting [1] is greater than 90%.
The same measure, in the same setting: to `CCC(CC)(C(=O)N1CCN(CC(=O)N2CCN(C3CCC3)CC2)CC1)c1ccccc1` [Compound 702, 1-cyclobutyl-4-{[4-(2-ethyl-2-phenylbutanoyl)piperazin-1-yl]acetyl}piperazine] belongs greater than 90%.
`Cc1ccc(C(=O)N2CCN(CC(=O)N3CCN(C4CCC4)CC3)CC2)cc1` [Compound 783, 1-cyclobutyl-4-{[4-(4-methylbenzoyl)piperazin-1-yl]acetyl}piperazine]: the inhibition at 4 µM under setting [4] is greater than 90%.
Take `COc1cc(OC)c(OC)cc1/C=C/C(=O)N1CCN(CC(=O)N2CCN(C3CCC3)CC2)CC1` [Compound 518, 1-cyclobutyl-4-({4-[(2E)-3-(2,4,5-trimethoxyphenyl)prop-2-enoyl]piperazin-1-yl}acetyl)piperazine]: under setting [2], the inhibition at 4 µM is greater than 90%.
On to `O=C(COc1ccccc1)N1CCN(CC(=O)N2CCN(C3CCC3)CC2)CC1` [Compound 797, 1-cyclobutyl-4-{[4-(phenoxyacetyl)piperazin-1-yl]acetyl}piperazine], for which, under setting [4], the inhibition at 4 µM was greater than 90%.
Regarding `O=C(C=Cc1ccccc1F)N1CCN(CC(=O)N2CCN(C3CCC3)CC2)CC1` [Compound 524, 1-cyctobutyl-4-({4-[(2E)-3-(2-fluorophenyl)prop-2-enoyl]piperazin-1-yl}acetyl)piperazine], the inhibition at 4 µM under setting [2] is greater than 90%.
With `O=C(CN1CCN(C(=O)c2cccnc2Sc2ccc(Cl)cc2)CC1)N1CCN(C2CCC2)CC1` [Compound 256, 1-({2-[(4-chlorophenyl)thio]pyridin-3-yl}carbonyl)-4-[2-(4-cyclobutylpiperazin-1-yl)-2-oxoethyl]piperazine], the inhibition at 4 µM under setting [3] is greater than 90%.
As for `COc1ccc(/C=C/C(=O)N2CCN(CC(=O)N3CCN(C4CCC4)CC3)CC2)c(Cl)c1OC` [Compound 387, 1-[(2E)-3-(2-chloro-3,4-dimethoxyphenyl)prop-2-enoyl]-4-[2-(4-cyclobutylpiperazin-1-yl)-2-oxoethyl]piperazine], the inhibition at 4 µM under setting [3] was greater than 90%.
As to `O=C(CN1CCN(C(=O)c2cccc(C(F)(F)F)c2)CC1)N1CCN(C2CCC2)CC1` [Compound 588, 1-cyclobutyl-4-({4-[3-(trifluoromethyl)benzoyl]piperazin-1-yl}acetyl)piperazine], the inhibition at 4 µM under setting [1] was greater than 90%.
Turning to `COc1ccc(CC(=O)N2CCN(CC(=O)N3CCN(C4CCC4)CC3)CC2)cc1` [Compound 563, 1-cyclobutyl-4-({4-[(4-methoxyphenyl)acetyl]piperazin-1-yl}acetyl)piperazine], the inhibition at 4 µM under setting [2] is greater than 90%.
On to `O=C(COc1ccc2ccccc2c1)N1CCN(CC(=O)N2CCN(C3CCC3)CC2)CC1` [Compound 540, 1-cyclobutyl-4-({4-[(2-naphthyloxy)acetyl]piperazin-1-yl}acetyl)piperazine], for which the inhibition at 4 µM under setting [2] was greater than 90%.
`O=C(/C=C/c1ccc(C(F)(F)F)cc1)N1CCN(CC(=O)N2CCN(C3CCC3)CC2)CC1` [Compound 616, 1-cyclobutyl-4-[(4-{(2E)-3-[4-(trifluoromethyl)phenyl]prop-2-enoyl}piperazin-1-yl)acetyl]piperazine]: the inhibition at 4 µM under setting [1] is greater than 90%.
For `O=C(CN1CCN(C(=O)c2ccc(Cl)c(Cl)c2)CC1)N1CCN(C2CCC2)CC1` [Compound 726, 1-cyclobutyl-4-{[4-(3,4-dichlorobenzoyl)piperazin-1-yl]acetyl}piperazine], the inhibition at 4 µM under setting [1] was greater than 90%.
Same read-out and setting: as for `Cc1ccc(Oc2ncccc2C(=O)N2CCN(CC(=O)N3CCN(C4CCC4)CC3)CC2)c(C)c1` [Compound 617, 1-cyclobutyl-4-[(4-{[2-(2,4-dimethylphenoxy)pyridin-3-yl]carbonyl}piperazin-1-yl)acetyl]piperazine], the figure is greater than 90%; as for `O=C(CN1CCN(C(=O)c2ccc(-n3cccc3)nc2)CC1)N1CCN(C2CCC2)CC1` [Compound 635, 1-cyclobutyl-4-[(4-{[6-(1H-pyrrol-1-yl)pyridin-3-yl]carbonyl}piperazin-1-yl)acetyl]piperazine], greater than 90%.
On to `Cc1ccc(C(=O)N2CCN(CC(=O)N3CCN(C4CCC4)CC3)CC2)cc1Br` [Compound 292, 1-(3-bromo-4-methylbenzoyl)-4-[2-(4-cyclobutylpiperazin-1-yl)-2-oxoethyl]piperazine], for which the inhibition at 4 µM under setting [3] was greater than 90%.
As for `O=C(CN1CCN(C(=O)c2csc(-c3ccncc3)n2)CC1)N1CCN(C2CCC2)CC1` [Compound 543, 1-cyclobutyl-4-({4-[(2-pyridin-4-yl-1,3-thiazol-4-yl)carbonyl]piperazin-1-yl}acetyl)piperazine], the inhibition at 4 µM under setting [2] was greater than 90%.

As a reminder, the inhibition is how much of the control response was suppressed.

These data come from patent US7851474B2, “Dipiperazinyl ketones and related analogues” (Neurogen Corporation, priority 2005, dated 2010).
